Results published in the supplement of paper PMC13380429.

Experiments:
Conditions in all cases: 72 h
U2OS [1] = assay: cell viability relative to DMSO; higher = less toxic
Caco-2 [2] = assay: as above
HepG2 [3] = assay: as above
Calu-3 [4] = assay: as above
Vero E6 [5] = assay: as above
U2OS [6] = assay: drug sensitivity score (DSS) for viability; higher = more toxic; extreme values may be limits of the assay
Caco-2 [7] = assay: as above
HepG2 [8] = assay: as above
Calu-3 [9] = assay: as above
Vero E6 [10] = assay: as above
U2OS [11] = assay: relative viability EC50 (midpoint between 100% and the lowest measured viability); higher = less toxic
Caco-2 [12] = assay: as above
HepG2 [13] = assay: as above
Calu-3 [14] = assay: as above
Vero E6 [15] = assay: as above

| Compound | cell viability (U2OS [1]; 1 nM) [%] | cell viability (U2OS [1]; 10 nM) [%] | cell viability (U2OS [1]; 100 nM) [%] | cell viability (U2OS [1]; 1000 nM) [%] | cell viability (U2OS [1]; 10000 nM) [%] | cell viability (Caco-2 [2]; 1 nM) [%] | cell viability (Caco-2 [2]; 10 nM) [%] | cell viability (Caco-2 [2]; 100 nM) [%] | cell viability (Caco-2 [2]; 1000 nM) [%] | cell viability (Caco-2 [2]; 10000 nM) [%] | cell viability (HepG2 [3]; 1 nM) [%] | cell viability (HepG2 [3]; 10 nM) [%] | cell viability (HepG2 [3]; 100 nM) [%] | cell viability (HepG2 [3]; 1000 nM) [%] | cell viability (HepG2 [3]; 10000 nM) [%] | cell viability (Calu-3 [4]; 1 nM) [%] | cell viability (Calu-3 [4]; 10 nM) [%] | cell viability (Calu-3 [4]; 100 nM) [%] | cell viability (Calu-3 [4]; 1000 nM) [%] | cell viability (Calu-3 [4]; 10000 nM) [%] | cell viability (Vero E6 [5]; 1 nM) [%] | cell viability (Vero E6 [5]; 10 nM) [%] | cell viability (Vero E6 [5]; 100 nM) [%] | cell viability (Vero E6 [5]; 1000 nM) [%] | cell viability (Vero E6 [5]; 10000 nM) [%] | drug sensitivity score (U2OS [6]) | drug sensitivity score (Caco-2 [7]) | drug sensitivity score (HepG2 [8]) | drug sensitivity score (Calu-3 [9]) | drug sensitivity score (Vero E6 [10]) | relative viability EC50 (U2OS [11]) [µM] | relative viability EC50 (Caco-2 [12]) [µM] | relative viability EC50 (HepG2 [13]) [µM] | relative viability EC50 (Calu-3 [14]) [µM] | relative viability EC50 (Vero E6 [15]) [µM] |
| --- | --- | --- | --- | --- | --- | --- | --- | --- | --- | --- | --- | --- | --- | --- | --- | --- | --- | --- | --- | --- | --- | --- | --- | --- | --- | --- | --- | --- | --- | --- | --- | --- | --- | --- | --- |
| S=C=Nc1cccc(NC(=S)NCCCCNC(=S)Nc2cccc(N=C=S)c2)c1 [MRS-2578] | 95.9 | 95.8 | 99.5 | 97.2 | 104 | 100 | 91.2 | 99.7 | 98.4 | 101 | 107 | 104 | 110 | 97.7 | 103 | 90.7 | 93.6 | 109 | 90.2 | 107 | 98.3 | 98.8 | 94.2 | 99.5 | 98.7 | 0 | 0 | 0 | 0 | 0 | > 10 | > 10 | > 10 | > 10 | > 10 |
| Cn1cc(C[C@@H](N)C(=O)O)c2ccccc21 [indoximod] | 102 | 97 | 102 | 99.4 | 103 | 94.5 | 83.8 | 81.7 | 91.7 | 104 | 114 | 97.6 | 102 | 118 | 101 | 107 | 98.7 | 96.3 | 103 | 106 | 104 | 95.4 | 91.6 | 101 | 102 | 0 | 0.1 | 0 | 0 | 0 | > 10 | > 10 | > 10 | > 10 | > 10 |
| COc1cc2c(cc1C(F)(F)F)N(C(=O)Nc1cc(F)cc(-c3cccnc3)c1)CC2 | 100 | 105 | 97.4 | 103 | 95.9 | 96.8 | 104 | 89.8 | 99 | 98.6 | 99.5 | 90.9 | 103 | 96.4 | 113 | 102 | 91.7 | 92.9 | 101 | 93.9 | 96.9 | 96.1 | 99.4 | 99.9 | 95.1 | 0 | 0 | 0 | 0 | 0 | > 10 | > 10 | > 10 | > 10 | > 10 |
